# Laboratory results taken from US10683290B2, “Tricyclic compounds as anticancer agents” (BRISTOL-MYERS SQUIBB COMPANY, priority 2015, dated 2020).
# Target: BRD4 (Homo sapiens, UniProt O60885)
# Experiment: biochemical
# Format: binding
# Conditions: one of the FRET assays described; read-out: FRET BRD4 IC50
row,Structure (SMILES),IC50
1,"[2H]C([2H])([2H])c1nnn(C)c1-c1cc2c(cc1F)c1ncc(C(C)(C)O)cc1n2C(c1cc(C)on1)C1CCOCC1 (stereo not shown) [Example 34, 2-{8-Fluoro-5-[(5-methyl-1,2-oxazol-3-yl)(oxan-4-yl)methyl]-7-[4-(^2H3)methyl-1-methyl-1H-1,2,3-triazol-5-yl]-5H-pyrido[3,2-b]indol-3-yl}propan-2-ol]",< 1 nM
2,"[2H]C([2H])([2H])c1nnn(C)c1-c1cc2c(cc1Cl)c1ncc(C(C)(C)O)cc1n2C(CCC)c1ncccc1F (single isomer, unassigned) [Example 82, 2-{8-chloro-5-[1-(3-fluoropyridin-2-yl)butyl]-7-[4-(^2H3)methyl-1-methyl-1H-1,2,3-triazol-5-yl]-5H-pyrido[3,2-b]indol-3-yl}propan-2-ol]",< 1500 nM
3,"[2H]C([2H])([2H])c1nnn(C)c1-c1cc2c(cc1F)c1ncc(C(C)(C)O)cc1n2C(c1cc(OC)ccn1)C1CCOCC1 (single isomer, unassigned) [Example 50, 2-{8-fluoro-5-[(4-methoxypyridin-2-yl)(oxan-4-yl)methyl]-7-[4-(^2H3)methyl-1-methyl-1H-1,2,3-triazol-5-yl]-5H-pyrido[3,2-b]indol-3-yl}propan-2-ol]",< 5 nM
4,"Cc1nnn(C)c1-c1ccc2c3ncc(C(C)(C)O)cc3n([C@H](c3ccccc3)C3CCOCC3)c2c1F [Example 20, 2-[7-(Dimethyl-1H-1,2,3-triazol-5-yl)-6-fluoro-5-[(S)-oxan-4-yl(phenyl)methyl]-5H-pyrido[3,2-b]indol-3-yl]propan-2-ol]",< 5 nM
5,"[2H]C([2H])([2H])c1nnn(C)c1-c1cc2c(cc1F)c1ncc(C(C)(C)O)cc1n2C(CCC)c1ncccc1F (single isomer, unassigned) [Example 38, 2-{8-fluoro-5-[1-(3-fluoropyridin-2-yl)butyl]-7-[4-(^2H3)methyl-1-methyl-1H-1,2,3-triazol-5-yl}-5H-pyrido[3,2-b]indol-3-yl]propan-2-ol]",< 1 nM
6,"[2H]C([2H])([2H])c1nnn(C)c1-c1cc2c(cc1F)c1ncc(C(C)(C)O)cc1n2C(c1ccc(F)cn1)C1CCOCC1 (single isomer, unassigned) [Example 45, 2-{8-fluoro-5-[(5-fluoropyridin-2-yl)(oxan-4-yl)methyl}-7-[4-(^2H3)methyl-1-methyl-1H-1,2,3-triazol-5-yl]-5H-pyrido[3,2-b]indol-3-yl]propan-2-ol]",< 5 nM
7,"Cc1nnn(C)c1-c1ccc2c3ncc(C(C)(C)O)cc3n([C@H](c3ccccc3)C3CCOCC3)c2c1 [Example 8, 2-[7-(dimethyl-1H-1,2,3-triazol-5-yl)-5-[(S)-oxan-4-yl(phenyl)methyl]-5H-pyrido[3,2-b]indol-3-yl]propan-2-ol]",< 1 nM
8,"[2H]C([2H])([2H])c1nnn(C)c1-c1ccc2c3ncc(C(C)(C)O)cc3n(C(c3cc(C)on3)C3CCOCC3)c2c1 (single isomer, unassigned) [Example 73, 2-{5-[(5-methyl-1,2-oxazol-3-yl)(oxan-4-yl)methyl]-7-[4-(^2H3)methyl-1-methyl-1H-1,2,3-triazol-5-yl]-5H-pyrido[3,2-b]indol-3-yl}propan-2-ol]",< 5 nM
9,"[2H]C([2H])([2H])c1nnn(C)c1-c1cc2c(cc1F)c1ncc(C(C)(C)O)cc1n2C(c1cc(OC)ccn1)C1CCOCC1 (single isomer, unassigned) [Example 51, 2-{8-fluoro-5-[(4-methoxypyridin-2-yl)(oxan-4-yl)methyl]-7-[4-(^2H3)methyl-1-methyl-1H-1,2,3-triazol-5-yl]-5H-pyrido[3,2-b]indol-3-yl}propan-2-ol]",< 1500 nM

# Same assay, conditions: read-out: FRET BRD4 IC50
row,IC50,Structure (SMILES)
1,< 5 nM,"[2H]C([2H])([2H])c1nnn(C)c1-c1ccc2c3ncc(C(C)(C)O)cc3n([C@H](c3ccccc3)C3CCOCC3)c2c1 [Example 16, 2-{7-[4-(^2H3)Methyl-1-methyl-1H-1,2,3-triazol-5-yl]-5-[(S)-oxan-4-yl(phenyl)methyl]-5H-pyrido[3,2-b]indol-3-yl}propan-2-ol]"
